GI50 and TGI data for 20 compounds are collected here from PubChem BioAssay (NCI).

“And” between values parts separate entries of the source, which are not always exact repeats. Equal values may be shown once.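 Compound exposure: 48 hours, 5 concentrations, 96-well plates. GI50: concentration for 50% inhibition of growth. At the TGI there is no net growth.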 Where only a bound is given, the exact number is not on record here.

Some test systems named below: PC-3 prostate; MCF7 breast; HL-60(TB) leukemia; T-47D breast; SR leukemia; OVCAR-5 ovarian; HCT-116 colon.
Holding throughout (assay): growth of human tumour cells (NCI), 48 h

Consider `ClCc1cccc(Cn2cnc3c(NC45CC6CC(CC(C6)C4)C5)ncnc32)c1`, for which the GI50 is 19 µM in the experiment on PC-3 prostate; 9.1 µM with MCF7 breast; 1.24 µM in the experiment with HL-60(TB) leukemia; 15.1 µM with T-47D breast; 19.2 µM in the experiment on OVCAR-5 ovarian; 12.6 µM with HCT-116 colon. For the same compound, the TGI with PC-3 prostate was 40.2 µM; in the experiment on MCF7 breast it was 45.5 µM; with HL-60(TB) leukemia, 26.6 µM; in the experiment with T-47D breast it was 36.6 µM; in the experiment on SR leukemia it was 18.9 µM; in the experiment on OVCAR-5 ovarian it was 36.4 µM. This compound also showed a TGI with HCT-116 colon of 30.4 µM.

On to `Nc1ccc(N(S(=O)(=O)c2ccccc2)S(=O)(=O)c2ccccc2)c(Cl)c1`, for which the TGI with PC-3 prostate, in the experiment on MCF7 breast, with T-47D breast, in the experiment on SR leukemia, in the experiment on OVCAR-5 ovarian and in the experiment on HCT-116 colon was more than 100 µM each time.

`CSc1ccc(C2=NN(C(=O)c3ccc(F)cc3)C(c3ccc(F)cc3)C2)cc1` (stereo not drawn): the GI50 was 6.43 µM in the experiment with PC-3 prostate; 4.98 µM in the experiment on MCF7 breast; 12 µM in the experiment with HL-60(TB) leukemia; 12.2 µM in the experiment with T-47D breast; 1.71 µM in the experiment with SR leukemia; 18.2 µM with OVCAR-5 ovarian. In addition, the GI50 in the experiment on HCT-116 colon was 3.61 µM. The TGI was 22.2 µM in the experiment on PC-3 prostate; 17.9 µM with MCF7 breast; 35.3 µM in the experiment with HL-60(TB) leukemia; 31.2 µM in the experiment on T-47D breast; 5.95 µM in the experiment on SR leukemia; 33.3 µM in the experiment on OVCAR-5 ovarian. The same compound yielded a TGI in the experiment with HCT-116 colon of 12.7 µM.

Turning to `O=Cc1ccc(-c2cc(C=O)c(-c3cccs3)[nH]2)s1`, the GI50 in the experiment on PC-3 prostate was more than 100 µM; in the experiment with MCF7 breast, 7.36 µM; in the experiment with T-47D breast it was 18.2 µM; in the experiment with SR leukemia it was 31.6 µM; with OVCAR-5 ovarian it was 66.4 µM; with HCT-116 colon, 64.2 µM. Besides, the TGI is 75 µM and > 100 µM with PC-3 prostate; 75 µM and > 100 µM in the experiment on MCF7 breast; 49.6 µM and > 100 µM with T-47D breast; 72.7 µM and > 100 µM in the experiment on SR leukemia; more than 100 µM in the experiment with OVCAR-5 ovarian; 75 µM and > 100 µM in the experiment with HCT-116 colon.

`O=[N+]([O-])c1cc(Cl)c(Cl)c([N+](=O)[O-])c1Cl`: the GI50 was 1.81 µM in the experiment on PC-3 prostate; 1.14 µM in the experiment on MCF7 breast; 0.439 µM in the experiment with HL-60(TB) leukemia; 0.538 µM in the experiment with SR leukemia; 2.13 µM in the experiment with OVCAR-5 ovarian; 0.624 µM in the experiment with HCT-116 colon. In addition, the TGI was 3.57 µM in the experiment on PC-3 prostate; 3.42 µM in the experiment on MCF7 breast; 2.92 µM in the experiment on HL-60(TB) leukemia; 4.93 µM in the experiment on SR leukemia; 4.18 µM in the experiment with OVCAR-5 ovarian; 2.12 µM with HCT-116 colon.

As to `CC(C)(C#N)c1cc(Cn2cncn2)cc(C(C)(C)C#N)c1`, the GI50 with PC-3 prostate is 792 µM; in the experiment on MCF7 breast, 2240 µM; with T-47D breast, 6760 µM; with OVCAR-5 ovarian, more than 10000 µM. Further, the TGI with PC-3 prostate, with MCF7 breast, in the experiment with T-47D breast and in the experiment with OVCAR-5 ovarian was more than 10000 µM each time.

In the case of `C=C1C(=O)O[C@H]2[C@H]1CC/C(CNC(=O)c1cc3cc(OC)ccc3[nH]1)=C\CC[C@@]1(C)O[C@@H]21`, the GI50 in the experiment on PC-3 prostate is 1.86 µM; in the experiment with HL-60(TB) leukemia it was 1.97 µM; in the experiment with T-47D breast, 1.47 µM; with SR leukemia, 2.24 µM; in the experiment on OVCAR-5 ovarian it was 2.19 µM; in the experiment on HCT-116 colon it was 0.645 µM. Besides, the TGI is 4.04 µM in the experiment on PC-3 prostate; 6.37 µM in the experiment with HL-60(TB) leukemia; 4.35 µM in the experiment with T-47D breast; 10.1 µM in the experiment with SR leukemia; 7.35 µM in the experiment with OVCAR-5 ovarian; 2.07 µM in the experiment on HCT-116 colon.

Regarding `COc1ccc(N2C(=O)CC(Cl)C2=O)cc1` (stereo not drawn), the TGI in the experiment with PC-3 prostate was more than 100 µM; with MCF7 breast, more than 100 µM; with T-47D breast, 38.4 µM; in the experiment with OVCAR-5 ovarian, 34.1 µM; in the experiment on HCT-116 colon, 32.2 µM.

Regarding `Cc1cc(C)c([O-])c(CN(C)CCN(C)Cc2cc(C)cc(C)c2[O-])c1.O=C([O-])c1cccc(C(=O)[O-])n1.[Ti+4]`, the GI50 is 2.7 µM with PC-3 prostate; 3.17 µM in the experiment with MCF7 breast; 1.69 µM in the experiment on HL-60(TB) leukemia; 1.28 µM with T-47D breast; 2.31 µM in the experiment with OVCAR-5 ovarian; 0.383 µM in the experiment with HCT-116 colon. Moreover, the TGI is more than 100 µM in the experiment on PC-3 prostate; more than 100 µM in the experiment with MCF7 breast; 5.56 µM with HL-60(TB) leukemia; more than 100 µM with T-47D breast; more than 100 µM in the experiment on OVCAR-5 ovarian; 22.3 µM in the experiment on HCT-116 colon.

As for `COc1cc(OC)cc(C2CC(=O)Nc3c2c(C)nn3-c2nc3ccccc3[nH]2)c1` (stereo not drawn), the GI50 in the experiment on PC-3 prostate was 3.09 µM; with MCF7 breast it was 2.94 µM; in the experiment with HL-60(TB) leukemia, 2.34 µM; with T-47D breast, 3.5 µM; in the experiment with OVCAR-5 ovarian, 4.15 µM; in the experiment with HCT-116 colon it was 1.97 µM. For the same compound, the TGI in the experiment on PC-3 prostate was 41.7 µM; in the experiment on MCF7 breast it was more than 100 µM; in the experiment on HL-60(TB) leukemia it was 7.37 µM; in the experiment with T-47D breast it was more than 100 µM; in the experiment on OVCAR-5 ovarian, more than 100 µM; in the experiment on HCT-116 colon it was 4.16 µM.

For the compound `O=c1c2c(nc3n1CCS3)[nH]c1ccccc12`, the GI50 in the experiment with PC-3 prostate, in the experiment on MCF7 breast, in the experiment on T-47D breast, in the experiment with OVCAR-5 ovarian and with HCT-116 colon was more than 100 µM in each case. Besides, the TGI in the experiment with PC-3 prostate, in the experiment on MCF7 breast, in the experiment on T-47D breast, in the experiment on OVCAR-5 ovarian and in the experiment on HCT-116 colon was more than 100 µM throughout.

Regarding `Cn1ccnc1CC(C)(O)c1ccccc1` (stereo not drawn), the TGI in the experiment on PC-3 prostate, in the experiment with MCF7 breast, in the experiment on SR leukemia, in the experiment with OVCAR-5 ovarian and with HCT-116 colon was more than 100 µM throughout.

For the compound `Cc1c(NC(=O)C(C)(C)Br)c(=O)oc2c(C)c3occc(=O)c3cc12`, the TGI with HL-60(TB) leukemia, in the experiment on SR leukemia and in the experiment with HCT-116 colon was more than 100 µM each time.

Turning to `CCC1(CC)C(=O)OC(=O)C1(CC)CC`, the TGI in the experiment on PC-3 prostate, in the experiment on HL-60(TB) leukemia, with T-47D breast, with SR leukemia and in the experiment on HCT-116 colon was more than 100 µM in each case.

`O=C(/C=C/c1ccc(F)cc1)c1ccc(Cl)cc1Cl`: the GI50 is 31.3 µM in the experiment with PC-3 prostate; 20.6 µM with MCF7 breast; 26.4 µM with SR leukemia; 32.4 µM in the experiment on OVCAR-5 ovarian; 16.6 µM with HCT-116 colon. Also, the TGI stood at 96.8 µM in the experiment with PC-3 prostate; 62.5 µM in the experiment with MCF7 breast; 86.5 µM with SR leukemia; 96.5 µM in the experiment with OVCAR-5 ovarian; 31.3 µM in the experiment with HCT-116 colon.

Consider `CCOC(=O)C(Cc1c[nH]c2ccc(N)cc12)(NC(C)=O)C(=O)OCC`, for which the GI50 is more than 1000 µM with PC-3 prostate; more than 1000 µM in the experiment on MCF7 breast; 758 µM with HL-60(TB) leukemia; 728 µM in the experiment on T-47D breast; more than 1000 µM in the experiment with OVCAR-5 ovarian; more than 1000 µM in the experiment on HCT-116 colon. Besides, the TGI with PC-3 prostate, in the experiment on MCF7 breast, with HL-60(TB) leukemia, in the experiment with T-47D breast, in the experiment on OVCAR-5 ovarian and in the experiment with HCT-116 colon was more than 1000 µM throughout.

Turning to `O=C1c2ccccc2-c2c1c1ccccc1c(=O)n2CCCNCCCn1ccnc1`, the GI50 in the experiment on PC-3 prostate was 1.58 µM; in the experiment with MCF7 breast, 0.772 µM; in the experiment with HL-60(TB) leukemia, 0.653 µM; in the experiment on T-47D breast it was 5.78 µM; in the experiment on OVCAR-5 ovarian, 1.55 µM; in the experiment with HCT-116 colon, 0.598 µM. The TGI amounted to 9.75 µM with PC-3 prostate; 12.7 µM in the experiment on MCF7 breast; 5.01 µM in the experiment with HL-60(TB) leukemia; 21.1 µM with T-47D breast; 4.93 µM in the experiment with OVCAR-5 ovarian; 2.01 µM with HCT-116 colon.

With `CC(=O)[O-].CC(=O)[O-].[Pt+2].c1cscn1.c1cscn1`, the GI50 with PC-3 prostate was more than 100 µM; with MCF7 breast it was 37.3 µM; in the experiment with HL-60(TB) leukemia, 36.4 µM; in the experiment with T-47D breast, 62 µM; with OVCAR-5 ovarian it was more than 100 µM; with HCT-116 colon it was 53.9 µM. Moreover, the TGI in the experiment on PC-3 prostate, in the experiment on MCF7 breast, in the experiment with HL-60(TB) leukemia, with T-47D breast, in the experiment with OVCAR-5 ovarian and in the experiment on HCT-116 colon was more than 100 µM throughout.

On to `COc1cc(OC)c(/C=C/S(=O)(=O)Cc2cnc(OC)c(N)c2)c(OC)c1`, for which the GI50 is less than 0.0187 µM in the experiment on PC-3 prostate; less than 0.0155 µM in the experiment with MCF7 breast; less than 0.0167 µM with HL-60(TB) leukemia; less than 0.0143 µM in the experiment with SR leukemia; less than 0.0482 µM in the experiment on OVCAR-5 ovarian; less than 0.0209 µM with HCT-116 colon. For the same compound, the TGI in the experiment on PC-3 prostate, with MCF7 breast, with SR leukemia, with OVCAR-5 ovarian and in the experiment on HCT-116 colon was more than 100 µM in each case.

In the case of `CCOC(=O)c1cc(C#N)c(=O)n(/N=C(\C)c2ccncc2)c1O`, the GI50 in the experiment on PC-3 prostate, in the experiment with MCF7 breast, in the experiment with T-47D breast, with SR leukemia, with OVCAR-5 ovarian and in the experiment with HCT-116 colon was more than 100 µM throughout. Besides, the TGI in the experiment with PC-3 prostate, in the experiment with MCF7 breast, with T-47D breast, in the experiment with SR leukemia, in the experiment with OVCAR-5 ovarian and in the experiment with HCT-116 colon was more than 100 µM in each case.
